Experimental data as given in US5817800A, “Inhibitors of β-glucuronidase and their use in the treatment of carcinamatosis and inflammation” (Hoechst Aktiengesellschaft, priority 1996, dated 1998).
pIC50: −log10 of the molar value. Counter-ions that a name gives are not always drawn.

Biological target: T1, human β-glucuronidase (Homo sapiens, UniProt P08236)
T1 sequence (P08236 23-651): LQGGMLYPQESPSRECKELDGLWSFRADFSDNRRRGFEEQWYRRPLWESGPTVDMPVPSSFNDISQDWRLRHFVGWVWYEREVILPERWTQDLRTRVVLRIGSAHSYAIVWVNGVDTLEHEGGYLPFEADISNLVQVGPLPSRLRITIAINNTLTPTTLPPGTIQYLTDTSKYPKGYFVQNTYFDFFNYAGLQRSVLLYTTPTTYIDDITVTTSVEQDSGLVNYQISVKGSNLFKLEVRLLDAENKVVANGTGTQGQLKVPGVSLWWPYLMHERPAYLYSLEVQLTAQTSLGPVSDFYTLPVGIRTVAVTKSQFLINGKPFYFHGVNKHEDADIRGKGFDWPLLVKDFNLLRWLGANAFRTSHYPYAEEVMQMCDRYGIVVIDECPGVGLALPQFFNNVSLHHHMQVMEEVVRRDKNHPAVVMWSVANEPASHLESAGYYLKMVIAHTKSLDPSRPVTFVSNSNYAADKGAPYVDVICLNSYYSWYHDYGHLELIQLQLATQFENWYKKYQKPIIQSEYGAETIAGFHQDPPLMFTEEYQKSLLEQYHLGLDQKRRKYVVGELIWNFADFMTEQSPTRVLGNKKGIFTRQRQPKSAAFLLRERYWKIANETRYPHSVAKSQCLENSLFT
Test: Inhibition of human β-glucuronidase (4-methylumbelliferyl-β-D-glucuronide substrate, fluorescence)
Format: biochemical
Details: substrate 4-methylumbelliferyl-β-D-glucuronide; 200 mM sodium acetate, 0.1 mg/ml BSA, pH 5; 10 min, 37° C.
Experimental: The inhibition of human β-glucuronidase was determined using 4-methylumbelliferyl-β-D-glucuronide as a substrate. The test mixture contained 75 μl of 2.5 mM 4-methylumbelliferyl-β-D-glucuronide, 25 μl of enzyme (0.6 μg/ml) and 10 μl of the compound of the formula I in a concentration range from 0.0001 to 100 mM, all in 200 mM sodium acetate buffer and 0.1 mg/ml bovine serum albumin (BSA), pH 5. After a 10-minute incubation at 37° C., the mixture was stopped with 1.5 ml of 0.2 M glycine/0.2% SDS, pH 11.7. The methylumbelliferone released by the enzyme was measured in a fluorescence photometer at 360 nm excitation and 450 nm emission wavelength.
The IC50 -values were calculated from the inhibitor dilution series using the software program GraFit 2.0 (Erithacus Software Ltd.).

| pIC50 | SMILES |
| --- | --- |
| 6.22 | O=C(Nc1ccccc1)O/N=C1\O[C@H](C(=O)O)[C@@H](O)[C@H](O)[C@H]1O [Example 1, (Z)-O-(D-Glucopyranuronosylidene)amino N-phenylcarbamate (sodium salt)] |
| 1.96 | O=C(Nc1ccccc1)O/N=C1\O[C@H](P(=O)(O)O)[C@@H](O)[C@H](O)[C@H]1O [Example 2, Sodium (5R,Z)-O-(5-C-phosphonato-D-xylopyranosylidene) amino N-phenylcarbamate] |
